The values that follow come from US20210077570A1, “COMPOSITION COMPRISING A POLYMYXIN AND TEICOPLANIN” (GALENUS G.H. AG, priority 2018, published 2021).

Like-named read-outs stand apart in the source and are kept apart here. Positions of bridges follow the written chain, without caps; N, C: chain ends. Non-standard residues stand in square brackets, D forms with d. Residues, ends and D or L forms follow the SMILES beside them. *: point of attachment. Heptanoyl(5-Me) = CCC(C)CCCC(=O)*; Dab = NCC[C@H](N)C(=O)O Where only a bound is given, the exact number is not on record here.

The subject of one experiment is A. nosocomialis 1461911. The experiment in a line: Checkerboard analysis MIC/FIC and MBC/FBC, colistin sulphate plus teicoplanin. It counts as cell-based. To be noted: agent alone, CAMHB, inoculum 5*10^5 CFU/ml; for MIC: A. nosocomialis 1461911, 24 h; for MBC: A. nosocomialis. On the procedure: (§1) Checkerboard analysis to determine minimal inhibitory concentration (MIC)/fractional inhibitory concentration (FIC) and minimal […] (MBC)/fractional […] (FBC) values of colistin sulphate (CS) plus teicoplanin (TP) for 6 Gram-negative strains with a bacterial load 5(1−10)*10^5 CFU/ml in a cation-adjusted Mueller-Hinton broth (CAMHB). • a. Antimicrobial stock solutions were prepared using sterile distilled water • b. CS was added along the ordinate; TP was added along the abscissa to 96 well, flat bottom, polystyrene panels with no treatment. Colistin alone was tested in triplicates. • c. Serial 2-fold dilutions starting with 640 μg/ml CS and 640 μg/ml TP were made; 15 μl volume of the serial dilutions were added for each agent to the appropriate wells; final volume at 30 μl • d. For each agent tested alone an additional 15 μl media was added to the well. 30 μl were added in control wells where none of the agent was tested. The negative control well contains 150 μl media without any additions • e. From an overnight bacterial culture in tryptic soy broth, 100 μl was added to 10 mL of fresh tryptic soy broth. This was then incubated at 37° C. for 1.5 hour at 180 rpm. • f. Bacteria in 120 μl CAMHB were added to each well (end concentration 5(1−10)*10^5 CFU/ml) • g. Plates were incubated at 37° C. in an ambient air incubator for 24 h • h. Turbidity at OD600 is determined with a plate photometer • i. By using a one-time inoculator 3 μl from each well of the 96-well plate were transferred to three blood agar plates. The plates were incubated over night at 37° C. in an ambient air incubator • j. MIC values are defined as lowest concentration which restricts bacterial growth to OD600≤0.1 • k. MBC values were determined by visual reading the lowest concentration which inhibits 99.9% of the growth of bacteria in the wells • l. Determination of the fractional inhibitory concentration (FIC) index and fractional bactericidal concentration (FBC) index and characterization of antimicrobial interactions was assessed • FIC calculation was carried out as: (MIC of drug A, tested in combination)/(MIC of drug A, tested alone)+(MIC of drug B, tested in combination)/(MIC of drug B, tested alone). FBC calculation was carried out just as well • Interactive categories were calculated from checkerboard analysis using MIC results from testing each agent alone and MIC results from the combination wells adjacent to the wells with growth in them […]
b. Indifference; FIC/FBC>0.5 to <4.0 c. Antagonism; FIC/FBC≥4.0 b. A. nosocomialis 1461911 (IHMA), colistin resistant

For the next experiment, the system named is S. maltophilia 1221783. Described as above. The settings on record: agent alone, CAMHB, inoculum 5*10^5 CFU/ml; for MIC: S. maltophilia 1221783, 24 h; for MBC: S. maltophilia, first line of Table 2 (1221783 by order). The experiment is classed as cell-based, Stenotrophomonas maltophilia. On the procedure: as §1
b. Indifference; FIC/FBC>0.5 to <4.0 c. Antagonism; FIC/FBC≥4.0 […]
e. Stenotrophomonas maltophilia 1221783 (IHMA), colistin susceptible

A further experiment has as its system A. guillouiae 1285286. Described as above. The experiment is classed as cell-based. To be noted: agent alone, CAMHB, inoculum 5*10^5 CFU/ml; for MIC: A. guillouiae 1285286, 24 h; for MBC: A. guillouiae. As to the method: as §1
b. Indifference; FIC/FBC>0.5 to <4.0 c. Antagonism; FIC/FBC≥4.0 d. A. guillouiae 1285286 (IHMA), colistin resistant

The test system of a further experiment is S. maltophilia 1237289. The description is as above. The experiment is classed as cell-based, Stenotrophomonas maltophilia. The settings on record: agent alone, CAMHB; for MIC: S. maltophilia 1237289; for MBC: S. maltophilia, second line of Table 2 (1237289 by order). On the procedure:
Checkerboard analysis to determine minimal inhibitory concentration (MIC)/fractional inhibitory concentration (FIC) and minimal […] (MBC)/fractional […] (FBC) values of colistin sulphate (CS) plus teicoplanin (TP) for 6 Gram-negative strains with a bacterial load 5(1−10)*10^5 CFU/ml in a cation-adjusted Mueller-Hinton broth (CAMHB). • a. Antimicrobial stock solutions were prepared using sterile distilled water • b. CS was added along the ordinate; TP was added along the abscissa to 96 well, flat bottom, polystyrene panels with no treatment. Colistin alone was tested in triplicates. • c. Serial 2-fold dilutions starting with 640 μg/ml CS and 640 μg/ml TP were made; 15 μl volume of the serial dilutions were added for each agent to the appropriate wells; final volume at 30 μl • d. For each agent tested alone an additional 15 μl media was added to the well. 30 μl were added in control wells where none of the agent was tested. The negative control well contains 150 μl media without any additions • e. From an overnight bacterial culture in tryptic soy broth, 100 μl was added to 10 mL of fresh tryptic soy broth. This was then incubated at 37° C. for 1.5 hour at 180 rpm. • f. Bacteria in 120 μl CAMHB were added to each well (end concentration 5(1−10)*10^5 CFU/ml) • g. Plates were incubated at 37° C. in an ambient air incubator for 24 h • h. Turbidity at OD600 is determined with a plate photometer • i. By using a one-time inoculator 3 μl from each well of the 96-well plate were transferred to three blood agar plates. The plates were incubated over night at 37° C. in an ambient air incubator • j. MIC values are defined as lowest concentration which restricts bacterial growth to OD600≤0.1 • k. MBC values were determined by visual reading the lowest concentration which inhibits 99.9% of the growth of bacteria in the wells • l. Determination of the fractional inhibitory concentration (FIC) index and fractional bactericidal concentration (FBC) index and characterization of antimicrobial interactions was assessed • FIC calculation was carried out as: (MIC of drug A, tested in combination)/(MIC of drug A, tested alone)+(MIC of drug B, tested in combination)/(MIC of drug B, tested alone). FBC calculation was carried out just as well • Interactive categories were calculated from checkerboard analysis using MIC results from testing each agent alone and MIC results from the combination wells adjacent to the wells with growth in them
b. Indifference; FIC/FBC>0.5 to <4.0
c. Antagonism; FIC/FBC≥4.0

The subject of experiment [1] is non-multiplying stationary phase bacteria. The experiment in a line: Elimination of dormant (resistant) bacteria, long term non-multiplying stationary phase model. It counts as cell-based. To be noted: nutrient depleted 5-6 day stationary phase cell suspension in PBS. As to the method: In order to test the elimination of dormant (resistant) bacteria the long term non-multiplying stationary phase model is used (Hu et al 2010 [18]). Long-term stationary phase cultures of 5 to 6 days are chosen with the test strains as described above. These late stationary phase cultures, may represent a mixed population with a dynamic balance of cell division and cell death. In order to induce the bacterial cells into a non-replicating stage, the cells are washed and incubated with PBS. […] The nutrient depleted 5-6 day stationary phase cell suspension now called non-multiplying stationary phase bacteria is used to test TEC and CS as mono substances or in combinations with the concentrations as mentioned above.

As a reminder, the MBC is the smallest concentration meeting the test's criterion for killing. In the case of `CCC(C)CCCC(=O)N[C@@H](CCN)C(=O)N[C@H](C(=O)N[C@@H](CCN)C(=O)N[C@H]1CCNC(=O)[C@H]([C@@H](C)O)NC(=O)[C@H](CCN)NC(=O)[C@H](CCN)NC(=O)[C@H](CC(C)C)NC(=O)[C@@H](CC(C)C)NC(=O)[C@H](CCN)NC1=O)[C@@H](C)O` (stereo partly drawn) [CS, colistin sulphate] ({Heptanoyl(5-Me)}-[Dab]T[Dab][Dab][Dab][dL]L[Dab][Dab]T; lactam 4-C), the MIC is ≥ 4 µg/mL in the experiment on A. nosocomialis 1461911 (Acinetobacter nosocomialis, 1461911, 24 h, read-out: MIC); 0.5 µg/mL in the experiment on S. maltophilia 1221783 (Stenotrophomonas maltophilia, 1221783, 24 h, read-out: MIC); 2 µg/mL in the experiment on A. guillouiae 1285286 (read-out: MIC); 0.5 µg/mL in the experiment on S. maltophilia 1237289 (Stenotrophomonas maltophilia, inoculum 5*10^5 CFU/ml, 24 h, read-out: MIC); 8 µg/mL in the experiment with S. maltophilia 1237289 (Stenotrophomonas maltophilia, after 48 h growth (values in brackets), read-out: MIC). Besides, the MBC with A. nosocomialis 1461911 (Acinetobacter nosocomialis, 1461911, read-out: MBC) was found to be 8 µg/mL; with S. maltophilia 1221783 (Stenotrophomonas maltophilia, read-out: MBC) it was 2 µg/mL; in the experiment with A. guillouiae 1285286 (read-out: MBC) it was 4 µg/mL; in the experiment with S. maltophilia 1237289 (Stenotrophomonas maltophilia, inoculum 5*10^5 CFU/ml, read-out: MBC) it was 8 µg/mL. Moreover, in experiment [1], the “Elimination of non-multiplying stationary phase bacteria” value was “not as mono substances”.
Consider teicoplanin [TP], for which the MIC in the experiment on A. nosocomialis 1461911 is >64 µg/mL; in the experiment on S. maltophilia 1221783, >64 µg/mL; in the experiment on A. guillouiae 1285286, >64 µg/mL; with S. maltophilia 1237289 (inoculum 5*10^5 CFU/ml, 24 h), >64 (>64) mg/l; in the experiment with S. maltophilia 1237289 (after 48 h growth (values in brackets)), >64 (>64) mg/l. Also, the MBC with A. nosocomialis 1461911, in the experiment on S. maltophilia 1221783, with A. guillouiae 1285286 and in the experiment with S. maltophilia 1237289 (inoculum 5*10^5 CFU/ml) was >64 µg/mL each time. Moreover, the “Elimination of non-multiplying stationary phase bacteria” value in experiment [1] is given as “not as mono substances”.
